Experimental data taken from patent US7205333B2 (priority 2000, dated 2007).
Values after ≈ are worked out from the molar mass of the structure shown. Read-outs that look alike come from different tables or passages of the source.

Legend:
[1] = Long duration of action: level of compound in lung tissue after intra-tracheal dosing; format: in vivo, Rodents; conditions: 0.4 mg/kg intra-tracheal, LC-MS/MS, in parallel with Zanamivir
Experimental: Rodents are anaesthetised and dosed with compound of interest by the intra-tracheal route at a dose volume of 0.8 ml/kg. The rodent is then held in the vertical position until full recovery is achieved. At different time points, for example, 2, 8, 24 and 48 hours post-dose, levels of compound in the lung tissue are assessed by analytical methods. Any analytical method suitable for detection of this type of compound may-be used. The time at which levels of compound fall below the sensitivity of the analytical techniques identified will determine the residency time of the compound in lung tissue.
The multimeric Compounds No 3, 4 and 20 of the invention were tested in parallel with Zanamivir [Compound (A)] using a dose of 0.4 mg/kg for each compound and assessing the level of compound in the lung tissue after 48 and 168 hours, using LC-MS/MS.

[2] = system: Influenza A/Victoria/3/75; set-up: species or system mice; conditions: mouse, in vivo
[3] = system: Influenza A/Singapore/1/57; format: in vivo; set-up: Effectiveness: unit: %; conditions: A/Singapore/1/57, lungs 1 day post infection; for Effectiveness / Mean Virus Titre (logTCID50/ml): mice
[4] = system: Influenza A/Victoria/3/75; assay: Influenza plaque assay in MDCK cell monolayers; conditions: Influenza A virus, 96 h, read-out: EC50 on Influenza A/Victoria/3/75
[5] = system: Influenza B/Victoria/1/87; assay: Influenza plaque assay in MDCK cell monolayers; conditions: Influenza B virus, 96 h, read-out: EC50 on Influenza B/Victoria/1/87
A/Sydney/5/97 = assay: Inhibition of cytopathic effect (CPE) of influenza virus replication in MDCK cells; conditions: for EC50 / IC50: Influenza A virus, MDCK; for EC50: read-out: EC50 on Influenza A/Sydney/5/97
B/Harbin/7/95 = assay: as above; conditions: for EC50 / IC50: Influenza B virus, MDCK; for EC50: read-out: EC50 on Influenza B/Harbin/7/95
A/Victoria/3/75 = assay: as above
[6] = system: Influenza A/Victoria/3/75; set-up: species or system mice; conditions: mouse, in vivo; remark: listed apart in the source
Influenza A/WSN/33 = assay: Influenza plaque assay in MDCK cell monolayers; conditions: Influenza A virus, 96 h, read-out: EC50 on Influenza A/WSN/33
[7] = CPE results, same protocol as b341, MDCK cells

Row | SMILES | % Effectiveness [2] [%] | Mean Virus Titre (logTCID50/ml) [2] [logTCID50/ml] | Number of virus free mice [2] | Number of virus free mice ([3]; 1 mg/kg) | Effectiveness ([3]; 1 mg/kg) | Mean Virus Titre (logTCID50/ml) ([3]; 1 mg/kg) | EC50 [4] [ng/mL] | EC50 [5] [ng/mL] | EC50 (A/Sydney/5/97) [ng/mL] | EC50 (B/Harbin/7/95) [ng/mL] | IC50 (A/Sydney/5/97; read-out: IC50 nM) [nM] | IC50 (A/Sydney/5/97; read-out: IC50 ng/ml) [ng/mL] | IC50 (B/Harbin/7/95; read-out: IC50 nM) [nM] | IC50 (B/Harbin/7/95; read-out: IC50 ng/ml) [ng/mL] | IC50 (A/Victoria/3/75; read-out: IC50 nM) [nM] | IC50 (A/Victoria/3/75; read-out: IC50 ng/ml) [ng/mL] | other results
1 | CC(=O)N[C@H]1[C@H]([C@H](OC(=O)NCCCCCCNC(=O)CN(CCN(CC(=O)NCCCCCCNC(=O)O[C@H](C(O)CO)[C@@H]2OC(C(=O)O)=C[C@H](NC(=N)N)[C@H]2NC(C)=O)CC(=O)NCCCCCCNC(=O)O[C@H](C(O)CO)[C@@H]2OC(C(=O)O)=C[C@H](NC(=N)N)[C@H]2NC(C)=O)CC(=O)NCCCCCCNC(=O)O[C@H](C(O)CO)[C@@H]2OC(C(=O)O)=C[C@H](NC(=N)N)[C@H]2NC(C)=O)C(O)CO)OC(C(=O)O)=C[C@@H]1NC(=N)N (some centres unmarked) [Compound 3] | 59 | 4.0 | 4 | 1 | 99.47 | 3.78 | 0.1 (≈ 0.0472 nM) | 0.3 (≈ 0.142 nM) |  |  |  |  |  |  |  |  | level of compound in the lung tissue after 48 and 168 hours [1]: retained in the lung at much higher concentrations than the monomer Zanamivir (A); Number of virus free mice ([3]; 0.01 mg/kg): 0; Effectiveness ([3]; 0.01 mg/kg): 68.38; Mean Virus Titre (logTCID50/ml) ([3]; 0.01 mg/kg): 5.55 logTCID50/ml; Number of virus free mice ([3]; 0.1 mg/kg): 0; Effectiveness ([3]; 0.1 mg/kg): 95.53; Mean Virus Titre (logTCID50/ml) ([3]; 0.1 mg/kg): 4.70 logTCID50/ml
2 | CC(=O)N[C@H]1[C@H]([C@H](OC(=O)NCCCCCCNC(=O)CN(CCN(CC(=O)NCCCCCCNC(=O)O[C@@H]([C@@H]2OC(C(=O)O)=C[C@H](NC(=N)N)[C@H]2NC(C)=O)[C@H](O)CO)CC(=O)NCCCCCCNC(=O)O[C@@H]([C@@H]2OC(C(=O)O)=C[C@H](NC(=N)N)[C@H]2NC(C)=O)[C@H](O)CO)CC(=O)O)[C@H](O)CO)OC(C(=O)O)=C[C@@H]1NC(=N)N.O=C(O)C(F)(F)F [Compound 14, (19R,20R)-19-((2R,3R,4S)-3-(acetylamino)-4-{[amino (imino)methyl]amino}-6-carboxy-3,4-dihydro-2H-pyran-2-yl)-3,6-bis[2-({6-[({[(1R,2R)-1-((2R,3R,4S)-3-(acetylamino)-4-{[amino(imino)methyl]amino}-6-carboxy-3,4-dihydro-2H-pyran-2-yl)-2,3-dihydroxypropyl]oxy}carbonyl)amino]hexyl}amino)-2-oxoethyl]-20,21-dihydroxy-8,17-dioxo-18-oxa-3,6,9,16-tetraazahenicosan-1-oic acid tris(trifluoroacetate)] |  |  |  |  |  |  |  | 6.3 |  |  |  |  |  |  |  |  | 
3 | CC(=O)N[C@H]1[C@H]([C@H](OC(=O)NCCCCCCNC(=O)COc2c3cc(C(C)(C)C)cc2Cc2cc(C(C)(C)C)cc(c2OCC(=O)NCCCCCCNC(=O)O[C@@H]([C@@H]2OC(C(=O)O)=C[C@H](NC(=N)N)[C@H]2NC(C)=O)[C@H](O)CO)Cc2cc(C(C)(C)C)cc(c2OCC(=O)NCCCCCCNC(=O)O[C@@H]([C@@H]2OC(C(=O)O)=C[C@H](NC(=N)N)[C@H]2NC(C)=O)[C@H](O)CO)Cc2cc(C(C)(C)C)cc(c2OCC(=O)NCCCCCCNC(=O)O[C@@H]([C@@H]2OC(C(=O)O)=C[C@H](NC(=N)N)[C@H]2NC(C)=O)[C@H](O)CO)C3)[C@H](O)CO)OC(C(=O)O)=C[C@@H]1NC(=N)N [Compound 23] | 78.2 | 4.7 | 0 |  |  |  |  |  |  |  |  |  |  |  |  |  | EC50 on Influenza A/Sydney/5/97 (A/Sydney/5/97; [7]): 27.714; EC50 on Influenza B/Harbin/7/95 (B/Harbin/7/95; [7]): 9.263
4 | O=Cc1cc(C=O)cc(C=O)c1 [Compound 29] |  |  |  |  |  |  |  |  | 0.089 (≈ 0.549 nM) | 0.882 (≈ 5.44 nM) |  |  |  |  |  |  | 
5 | CC(=O)N[C@H]1[C@H]([C@H](OC(=O)NCCCCCCN)[C@H](O)CO)OC(C(=O)O)=C[C@@H]1NC(=N)N [Compound (2) TFA2, 5-acetamido-7-(6-aminohexylcarbamoyloxy)-4-guanidino-2,3,4,5-tetradeoxy-D-glycero-D-galacto-non-2-enopyranosonic acid] |  |  |  |  |  |  |  |  |  |  | 588 | 413 | 259 | 182 | 52.7 | 37 | 
6 | CC(=O)N[C@H]1[C@H]([C@H](O)[C@H](O)CO)OC(C(=O)O)=C[C@@H]1NC(=N)N [Zanamivir, 4-guanidino-2-deoxy-2,3-dehydro-N-acetylneuraminic acid, reference compound] | −43.4 |  | 0 | 0 | 74.88 | 5.18 | 3.5 (≈ 10.5 nM) | 16 (≈ 48.1 nM) | 32.7 (≈ 98.3 nM) | 14.2 (≈ 42.7 nM) | 77.7 | 25.8 | 31.2 | 10.4 | 73.9 | 24.6 | Number of virus free mice ([3]; 0.2 mg/kg): 0; Effectiveness ([3]; 0.2 mg/kg): 33.17; Mean Virus Titre (logTCID50/ml) ([3]; 0.2 mg/kg): 5.60 logTCID50/ml; Number of virus free mice ([3]; 5 mg/kg): 1; Effectiveness ([3]; 5 mg/kg): 93.69; Mean Virus Titre (logTCID50/ml) ([3]; 5 mg/kg): 4.58 logTCID50/ml; Effectiveness [6]: 81.76; Number of virus free mice [6]: 0; EC50 (Influenza A/WSN/33): 22.7 ng/mL (≈ 68.3 nM)
